Experimental data from BindingDB's records for doi:10.7270/Q29P301W (University of Pittsburgh, 2006).
One block for each molecule: values may come before it.

Target: T1, Dual specificity protein phosphatase 6 (Rattus norvegicus, UniProt Q64346)
T1 sequence (Q64346 whole entry): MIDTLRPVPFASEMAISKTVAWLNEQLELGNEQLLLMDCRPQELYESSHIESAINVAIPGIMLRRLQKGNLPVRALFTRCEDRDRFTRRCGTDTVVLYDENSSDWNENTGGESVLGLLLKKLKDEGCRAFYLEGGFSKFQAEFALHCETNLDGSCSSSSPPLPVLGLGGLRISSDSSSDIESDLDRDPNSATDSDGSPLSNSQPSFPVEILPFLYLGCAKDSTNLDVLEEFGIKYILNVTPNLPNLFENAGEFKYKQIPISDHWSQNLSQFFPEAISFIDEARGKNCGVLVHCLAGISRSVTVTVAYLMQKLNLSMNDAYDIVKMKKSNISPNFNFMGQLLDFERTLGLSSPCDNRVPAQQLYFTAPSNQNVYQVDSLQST
Assay: DUSP6 inhibitors, confirmatory specificity test, biochemical, cell-free, concentration-response (AID 452)

- IC50: > 50 µM
Structure (SMILES): CC(C)Cn1c(N)c(C(=O)COC(=O)c2cc(-c3ccco3)nc3ccccc23)c(=O)n(C)c1=O [2-(2-furanyl)-4-quinolinecarboxylic acid [2-[4-amino-1-methyl-3-(2-methylpropyl)-2,6-dioxo-5-pyrimidinyl]-2-oxoethyl] ester]

- IC50: 41.2 µM
Structure (SMILES): COc1ccc(Cn2c(C)nc3c(c2=O)c2nc4ccccc4nc2n3Cc2ccco2)cc1 [MLS000079944]

Continued, molecule first:

Structure (SMILES): Cc1ccc2c(c1C)NC(C(=O)O)C1CC=CC21 (stereo not given)
- IC50: > 50 µM

Structure (SMILES): CCn1nc(-c2ccccc2)nc2c(=O)n(C)c(=O)nc1-2 [1-Ethyl-6-methyl-3-phenyl-1H-pyrimido[5,4-e][1,2,4]triazine-5,7-dione]
- IC50: 0.159 µM

Structure (SMILES): CCCCC[C@H](O)C=C[C@H]1C=CC(=O)[C@@H]1C/C=C\CCCC(=O)O [(Z)-7-[(1R,5S)-2-oxidanylidene-5-[(E,3S)-3-oxidanyloct-1-enyl]cyclopent-3-en-1-yl]hept-5-enoic acid]
- IC50: > 50 µM
